Laboratory results reported in patent US6776971B1, “Visible light pH change for activating polymers and other pH dependent reactants” (The United States of America as represented by the …, priority 1998, dated 2004).

Key:
[1] = cited from earlier work
[2] = Acidity constants (pK) in ground, first excited singlet and triplet states; format: physicochemical; conditions: for pK (S0): ground state
Source text: The term pK is a shorthand indicating the strength of an acid (pKa) and is defined as the −log10 K in which K is the characteristic equilibrium constant K, represented by:
where [H^+] is the hydrogen ion concentration and [B] is the concentration of the conjugate base. When the amount of one of these constituents is varied, the others will adjust to keep K constant.
(§1) In Table 1, characteristics of the carbon acids are described. […] In this table, “obs” means “observed” and “c” means “calculated”.
By utilizing visible light, the protonated form BH^+ of anthracene is disassociated into its base (B) and hydrogen ion (H^+) constituents to prompt a pH change from […]. […] The calculation in Table 2 is based on a pK(S0) value for anthracene found in Mackor. E. L., Hofstra, A., and Van Der Waals, J. H., 1958, in an article entitled “The Basicity of Aromatic Hydrocarbons”, Trans. Faraday Soc., vol. 54, 66.

[3] = Excitation wavelength and light absorbance; format: physicochemical; conditions: for Log (eps) / epsilon: 413.1 nm
Source text: In Table 1, characteristics of the carbon acids are described. […] In this table, “obs” means “observed” and “c” means “calculated”. Of these, the PAC, anthracene, fits well with certain well established polymers. Referring to FIG. 4, the protonated form of this molecule is confirmed. […] The peak at 424 nm is the only peak within the visible region of the spectrum which decreases with time, and is the signature of anthracene's protonated form. It is this peak that is used to activate the anthracene polymeric actuator with visible light.

[4] = Excited-state / phosphorescence lifetimes of candidate jump molecules; format: physicochemical; conditions: for τp (excited-state lifetime, p for phosphorescence): carbon acids, obs = observed; for Lifetimes (mS): triplet, prolonged excited state
Source text: During the course of scientific research, the inventor constructed kinetic equations for the 3-level system of FIG. 1. Referring again to FIG. 1, an ideal “jump molecule” will be excited from ground state energy level (S0) to first excited singlet state energy level (S1), and return to the ground state via triplet state energy level (T1). The radiationless transition and radiative decay via phosphorescence will function as a “sink” for the molecules and because of their combined long lifetime, a prolonged molecule excited state will exist. The pH change produced by this excitation will last for the life of this excited state.
For example, the phenones are considered undesirable because the lifetimes of the protonated and non-protonated forms are very different, providing a rapid excited state deactivation channel. An example of this is benzophenone, having an unprotonated lifetime of 100 milliseconds and a protonated lifetime of 62 nanoseconds.
as §1

[5] = pK(S0), value from Mackor et al 1958; cited from earlier work

O=S(=O)(O)c1ccc2cc(O)ccc2c1 [2-naphthol-6-sulfonate]
excited-state pKa value ([1]; S1 state, UV laser, from measured rate constants): 1.9 | ground-state pKa value [1]: 9.1 | change in pKa ([1]; ground vs excited state): 7 unit

N#CC1c2ccccc2-c2ccccc21 [9-cyanflourene]
pK (S0) [2]: 11.4 | λ00 (excitation wavelength necessary to initiate a pH change) [3]: 300 nm | τp (excited-state lifetime, p for phosphorescence) [4]: obs

c1ccc(C2c3ccccc3-c3ccccc32)cc1 [9-phenylflourene]
pK (S0) [2]: 18.6 | λ00 (excitation wavelength necessary to initiate a pH change) [3]: 305 nm | τp (excited-state lifetime, p for phosphorescence) [4]: obs

c1ccc2cc3ccccc3cc2c1 [Anthracene, anthracene]
pK's Singlet [2]: 13.6 | pK's Triplet ([2]; pK(T1)): 10.3 | Log (eps) [3]: 0.04 | epsilon [3]: 1 | pK's Ground [5]: 3.8 | Lifetimes nS ([4]; singlet excited state): 10.0 nS | Lifetimes (mS) [4]: (10.0) mS | Lifetimes (mS) ([4]; listed as anthracene): 10 mS

c1ccc2c(c1)Cc1ccccc1-2 [fluorene]
pK (S0) [2]: 23.04 | λ00 (excitation wavelength necessary to initiate a pH change) [3]: 300 nm | τp (excited-state lifetime, p for phosphorescence) [4]: 0.35 ms

protonated anthracene [BH+]
Log (eps) [3]: 4.38 | epsilon [3]: 23988 | absorbance peak within the visible region ([3]; zero-time spectrum, FIG. 4): 424 nm

O=C(c1ccccc1)c1ccccc1 [benzophenone]
protonated lifetime [4]: 62 nanoseconds | unprotonated lifetime [4]: 100 milliseconds
